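Five compound concentrations were applied to cells in 96-well plates for 48 hours; endpoints were derived by simple linear interpolation of the resulting dose-response curve. Abbreviation: GI50, concentration required for 50% inhibition of growth. TGI: concentration producing complete growth inhibition.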
What was measured:
Test in all cases: DTP human tumour cell line panel, 48 h
[1] = tested on: MDA-MB-231 breast
[2] = tested on: ACHN renal
[3] = tested on: HCT-116 colon
[4] = tested on: SK-MEL-28 melanoma
[5] = tested on: SK-MEL-5 melanoma
[6] = tested on: PC-3 prostate
[7] = tested on: IGROV1 ovarian
[8] = tested on: DU-145 prostate
[9] = tested on: SF-268 CNS
[10] = tested on: HL-60(TB) leukemia
[11] = tested on: RPMI-8226 leukemia
[12] = tested on: NCI-H522 lung
[13] = tested on: U251 CNS
[14] = tested on: SNB-75 CNS
[15] = tested on: SK-MEL-2 melanoma
[16] = tested on: NCI-H460 lung
[17] = tested on: SW-620 colon
[18] = tested on: EKVX NSCLC
[19] = tested on: SK-OV-3 ovarian
[20] = tested on: MALME-3M melanoma
[21] = tested on: HOP-92 NSCLC
[22] = tested on: HT29 colon
[23] = tested on: CCRF-CEM leukemia
[24] = tested on: BT-549 breast
[25] = tested on: HCT-15 colon
[26] = tested on: OVCAR-3 ovarian
[27] = tested on: SN12C renal
[28] = tested on: UACC-257 melanoma
[29] = tested on: 786-0 renal
[30] = tested on: HOP-62 NSCLC
[31] = tested on: K-562 leukemia
[32] = tested on: SF-295 CNS
[33] = tested on: HS 578T breast
[34] = tested on: MCF7 breast
[35] = tested on: A549 NSCLC
[36] = tested on: SNB-19 CNS
[37] = tested on: NCI-H23 lung
[38] = tested on: LOX IMVI melanoma
[39] = tested on: T-47D breast
[40] = tested on: HCC-2998 colon
[41] = tested on: MDA-MB-435
[42] = tested on: OVCAR-5 ovarian
[43] = tested on: OVCAR-4 ovarian
[44] = tested on: NCI-H226 lung
[45] = tested on: NCI/ADR-RES ovarian
[46] = tested on: RXF 393 renal
[47] = tested on: UACC-62 melanoma
[48] = tested on: MOLT-4 leukemia
[49] = tested on: UO-31 renal
[50] = tested on: SF-539 CNS
[51] = tested on: COLO 205 colon
[52] = tested on: KM12 colon
[53] = tested on: A498 renal
[54] = tested on: CAKI-1 renal
[55] = tested on: TK-10 renal
[56] = tested on: OVCAR-8 ovarian
[57] = tested on: SR leukemia

Work on NC(N)=N/N=C\c1ccc(OCc2ccccc2)cc1 yielded a GI50 [1] of 1960 nM, a TGI [1] of 5120 nM and a GI50 [2] of 2640 nM. The TGI [2] was 8660 nM, the GI50 [3] was 1510 nM and the TGI [3] was 3140 nM. The GI50 [4] was 1760 nM, the TGI [4] was 3680 nM and the GI50 [5] was 1620 nM. For the same compound, the TGI [5] was 3240 nM, the GI50 [6] was 2410 nM and the TGI [6] was 10600 nM. It also gave a GI50 [7] of 3420 nM, a TGI [7] of 18300 nM and a GI50 [8] of 2710 nM. For the same compound, the TGI [8] was 8450 nM, the GI50 [9] was 3470 nM and the TGI [9] was 17400 nM. It also gave a GI50 [10] of 2560 nM, a TGI [10] of 4870 nM and a GI50 [11] of 2020 nM. It also gave a TGI [11] of 5010 nM, a GI50 [12] of 1520 nM and a TGI [12] of 3150 nM. The GI50 [13] was 1620 nM, the TGI [13] was 3170 nM and the GI50 [14] was 1640 nM. For the same compound, the TGI [14] was 4700 nM, the GI50 [15] was 1740 nM and the TGI [15] was 3380 nM. For the same compound, the GI50 [16] was 1770 nM, the TGI [16] was 3470 nM and the GI50 [17] was 1640 nM. It also gave a TGI [17] of 3300 nM, a GI50 [18] of 7370 nM and a TGI [18] of 24200 nM. The GI50 [19] was 3470 nM, the TGI [19] was 14700 nM and the GI50 [20] was 2320 nM. It also gave a TGI [20] of 6030 nM, a GI50 [21] of 1050 nM and a TGI [21] of 4240 nM. For the same compound, the GI50 [22] was 1870 nM, the TGI [22] was 3870 nM and the GI50 [23] was 2730 nM. For the same compound, the TGI [23] was 10000 nM, the GI50 [24] was 10800 nM and the TGI [24] was 23000 nM. The GI50 [25] was 1970 nM, the TGI [25] was 5370 nM and the GI50 [26] was 2200 nM. It also gave a TGI [26] of 5750 nM, a GI50 [27] of 1970 nM and a TGI [27] of 5350 nM. It also gave a GI50 [28] of 1610 nM, a TGI [28] of 3310 nM and a GI50 [29] of 1660 nM. The TGI [29] was 3170 nM, the GI50 [30] was 2420 nM and the TGI [30] was 10500 nM. For the same compound, the GI50 [31] was 2650 nM, the TGI [31] was 5910 nM and the GI50 [32] was 2250 nM. For the same compound, the TGI [32] was 7020 nM, the GI50 [33] was 1750 nM and the TGI [33] was 4810 nM. For the same compound, the GI50 [34] was 1370 nM, the TGI [34] was 2910 nM and the GI50 [35] was 3310 nM. The TGI [35] was 13200 nM, the GI50 [36] was 3080 nM and the TGI [36] was 15400 nM. The GI50 [37] was 9840 nM, the TGI [37] was 24600 nM and the GI50 [38] was 1530 nM. For the same compound, the TGI [38] was 2960 nM, the GI50 [39] was 1450 nM and the TGI [39] was 4220 nM. It also gave a GI50 [40] of 1670 nM, a TGI [40] of 3200 nM and a GI50 [41] of 1680 nM. The TGI [41] was 4100 nM, the GI50 [42] was 2950 nM and the TGI [42] was 15500 nM. For the same compound, the GI50 [43] was 2630 nM, the TGI [43] was 13800 nM and the GI50 [44] was 4870 nM. For the same compound, the TGI [44] was 24200 nM, the GI50 [45] was 1820 nM and the TGI [45] was 4930 nM. The GI50 [46] was 1790 nM, the TGI [46] was 4260 nM and the GI50 [47] was 1570 nM. It also gave a TGI [47] of 3400 nM, a GI50 [48] of 3360 nM and a TGI [48] of 9360 nM. The GI50 [49] was 2700 nM, the TGI [49] was 17500 nM and the GI50 [50] was 1700 nM. The TGI [50] was 4060 nM, the GI50 [51] was 1740 nM and the TGI [51] was 3440 nM. It also gave a GI50 [52] of 1630 nM, a TGI [52] of 3100 nM and a GI50 [53] of 2310 nM. It also gave a TGI [53] of 9700 nM, a GI50 [54] of 3130 nM and a TGI [54] of 13400 nM.
Work on COc1cc(N2C(=O)[C@H](Cl)C2c2ccc(SC)cc2)cc(OC)c1OC (some centres not stated) yielded a GI50 [1] of 238 nM, a TGI [1] of over 100000 nM and a GI50 [2] of 61 nM. The TGI [2] was 71300 nM, the GI50 [3] was 35 nM and the TGI [3] was 1000 nM. For the same compound, the GI50 [5] was 52.2 nM, the TGI [5] was 468 nM and the GI50 [6] was 95.2 nM. For the same compound, the TGI [6] was over 100000 nM, the GI50 [7] was 67.2 nM and the TGI [7] was over 100000 nM. For the same compound, the GI50 [8] was 168 nM, the TGI [8] was over 100000 nM and the GI50 [9] was 84.1 nM. The TGI [9] was over 100000 nM, the GI50 [10] was 142 nM and the TGI [10] was 703 nM. The GI50 [11] was 348 nM, the TGI [11] was 10500 nM and the GI50 [12] was 29.9 nM. For the same compound, the TGI [12] was 263 nM, the GI50 [13] was 124 nM and the TGI [13] was over 100000 nM. For the same compound, the GI50 [55] was 1940 nM, the TGI [55] was over 100000 nM and the GI50 [14] was 23.6 nM. For the same compound, the TGI [14] was over 100000 nM, the GI50 [15] was 300 nM and the TGI [15] was over 100000 nM. For the same compound, the GI50 [16] was 362 nM, the TGI [16] was 11600 nM and the GI50 [56] was 226 nM. It also gave a TGI [56] of over 100000 nM, a GI50 [17] of 45.3 nM and a TGI [17] of over 100000 nM. It also gave a GI50 [18] of 209 nM, a TGI [18] of over 100000 nM and a GI50 [19] of 588 nM. For the same compound, the TGI [19] was over 100000 nM, the GI50 [21] was 214 nM and the TGI [21] was over 100000 nM. It also gave a GI50 [22] of 43.8 nM, a TGI [22] of over 100000 nM and a GI50 [23] of 305 nM. For the same compound, the TGI [23] was over 100000 nM, the GI50 [24] was 98.9 nM and the TGI [24] was 748 nM. The GI50 [25] was 47 nM, the TGI [25] was over 100000 nM and the GI50 [26] was 29.4 nM. It also gave a TGI [26] of 89 nM, a GI50 [27] of 348 nM and a TGI [27] of over 100000 nM. For the same compound, the GI50 [28] was 32200 nM, the TGI [28] was over 100000 nM and the GI50 [29] was 45.6 nM. The TGI [29] was 1830 nM, the GI50 [30] was 263 nM and the TGI [30] was over 100000 nM. The GI50 [31] was 36.6 nM, the TGI [31] was over 100000 nM and the GI50 [32] was 39.4 nM. The TGI [32] was over 100000 nM, the GI50 [33] was 101 nM and the TGI [33] was over 100000 nM. The GI50 [34] was 35.6 nM, the TGI [34] was over 100000 nM and the GI50 [35] was 463 nM. The TGI [35] was over 100000 nM, the GI50 [36] was 96.5 nM and the TGI [36] was over 100000 nM. The GI50 [37] was 121 nM, the TGI [37] was over 100000 nM and the GI50 [38] was 63.5 nM. It also gave a TGI [38] of over 100000 nM, a GI50 [39] of 41300 nM and a TGI [39] of over 100000 nM. For the same compound, the GI50 [57] was 47.3 nM, the TGI [57] was over 100000 nM and the GI50 [40] was 235 nM. It also gave a TGI [40] of over 100000 nM, a GI50 [42] of 411 nM and a TGI [42] of over 100000 nM. The GI50 [43] was 64.7 nM, the TGI [43] was over 100000 nM and the GI50 [44] was 370 nM. For the same compound, the TGI [44] was over 100000 nM, the GI50 [45] was 35.6 nM and the TGI [45] was over 100000 nM. For the same compound, the GI50 [46] was 38.5 nM, the TGI [46] was over 100000 nM and the GI50 [47] was 71.2 nM. For the same compound, the TGI [47] was 91500 nM, the GI50 [48] was 284 nM and the TGI [48] was over 100000 nM. For the same compound, the GI50 [50] was 30.7 nM, the TGI [50] was 163 nM and the GI50 [51] was 67.7 nM. It also gave a TGI [51] of 11400 nM, a GI50 [52] of 47.3 nM and a TGI [52] of 20300 nM. For the same compound, the GI50 [54] was 48.4 nM and the TGI [54] was over 100000 nM.

From PubChem BioAssay (NCI)
